Earlier results, collected in patent publication US6919335B2, “Heterocycles that are inhibitors of IMPDH enzyme” (Bristol-Myers Squibb Co., priority 2000, dated 2005).
Read-outs that look alike come from different tables or passages of the source.

Tests used:
[1] = system: antigen-specific T lymphocyte responses; settings: for % inhibition of proliferation: Rol plus MPA; for synergistic effect on inhibition of antigen-induced proliferation: in combination with Rol 10^−7 M; for approximate IC10: inhibition of antigen-induced proliferation
IMPDH types I and II = settings: RT-PCR, low and high concentrations, alone or both
[2] = system: proinflammatory cytokines (IL-2, IL-4, and IFN); settings: RT-PCR; Rol 10^−7 M, MPA 10^−8 M, or the combination

| SMILES | % inhibition of proliferation ([1]; with deoxyguanosine (antagonist of MPA on IMPDH), p<0.05) | % inhibition of proliferation ([1]; without deoxyguanosine) | synergistic effect on inhibition of antigen-induced proliferation [1] | gene expression for IMPDH types I and II (IMPDH types I and II) | downregulation in the generation of proinflammatory cytokines [2] | approximate IC10 [1] |
| --- | --- | --- | --- | --- | --- | --- |
| COc1c(C)c2c(c(O)c1C/C=C(\C)CCC(=O)O)C(=O)OC2 [MPA, mycophenolic acid] | 35±12% | 81±16% | marked synergistic effect | remained unaffected | no significant downregulation |  |
| CCCC(=O)Nc1ncnc2c1ncn2[C@@H]1O[C@@H]2COP(=O)(O)O[C@H]2[C@H]1OC(=O)CCC [dibuteryl-cAMP] |  |  |  |  |  | ~2e-06 M |
| COc1ccc(C2CNC(=O)C2)cc1OC1CCCC1 (stereo not shown) [rolipram, 4-[3-(cyclopentyloxy)-4-methoxy-phenyl]-2-pyrrolidinone] |  |  |  | remained unaffected | no significant downregulation | ~10^−7 M |
| C=CC[C@@H]1/C=C(\C)C[C@H](C)C[C@H](OC)[C@H]2O[C@@](O)(C(=O)C(=O)N3CCCC[C@H]3C(=O)O[C@H](/C(C)=C/[C@@H]3CC[C@@H](O)[C@H](OC)C3)[C@H](C)[C@@H](O)CC1=O)[C@H](C)C[C@@H]2OC [tacrolimus] |  |  | little or no synergistic effect |  |  |  |
